Where a name gives a salt, the structure may show the parent alone. Read-outs that look alike come from different tables or passages of the source.
Legend:
[1] = molecular target: T1, BRAFV600E full-length (amino acids 2-766) (Homo sapiens, UniProt P15056, V600E); test: B-Raf Accelerated MEK ATPase assay (BRAMA); format: biochemical; conditions: later runs, average pIC50 for the one or more runs, categorized
T1 construct: His6-tagged BRAFV600E full-length (amino acids 2-766); His6; made in house; host or cells: baculovirus expression system (insect cells)
T1 sequence (P15056 2-766 V600E): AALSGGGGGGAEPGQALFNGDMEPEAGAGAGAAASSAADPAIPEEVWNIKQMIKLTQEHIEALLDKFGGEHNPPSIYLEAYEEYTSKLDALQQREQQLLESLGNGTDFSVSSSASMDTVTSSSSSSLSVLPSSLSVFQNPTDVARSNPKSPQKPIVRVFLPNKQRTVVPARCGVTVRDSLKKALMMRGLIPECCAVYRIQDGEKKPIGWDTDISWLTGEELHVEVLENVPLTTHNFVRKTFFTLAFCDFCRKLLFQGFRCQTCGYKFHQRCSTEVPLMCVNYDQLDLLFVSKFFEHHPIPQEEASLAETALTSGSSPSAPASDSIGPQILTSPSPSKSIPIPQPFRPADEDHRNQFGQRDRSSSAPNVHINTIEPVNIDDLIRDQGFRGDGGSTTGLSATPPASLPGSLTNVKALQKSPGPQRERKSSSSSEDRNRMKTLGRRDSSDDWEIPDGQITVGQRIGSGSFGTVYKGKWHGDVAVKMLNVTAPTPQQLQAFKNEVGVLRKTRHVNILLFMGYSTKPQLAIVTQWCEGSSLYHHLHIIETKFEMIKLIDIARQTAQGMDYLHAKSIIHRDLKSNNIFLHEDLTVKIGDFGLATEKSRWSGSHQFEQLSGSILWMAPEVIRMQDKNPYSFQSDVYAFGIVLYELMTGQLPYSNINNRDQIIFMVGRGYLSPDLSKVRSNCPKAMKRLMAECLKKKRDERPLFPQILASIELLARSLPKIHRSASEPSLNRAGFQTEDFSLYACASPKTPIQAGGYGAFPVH
In short: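 Coupled-enzyme readout: ADP generated by MEK-mediated ATP hydrolysis, uncoupled from ERK phosphorylation, is linked to NADH oxidation through pyruvate kinase and lactate dehydrogenase.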

[2] = system: Human colon tumor cells (Colo205); test: Cell growth inhibition assay (CellTiter-Glo), Colo205; format: cell-based; conditions: COLO 205, Table 2b, later runs, average for the one or more runs, categorized, read-out: IC50 for Colo205
In short: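 Growth is estimated from total cellular ATP measured by CellTiter-Glo luminescence after a 3-day compound exposure at 37 °C. Compounds are tested as 1:3 dilution series in 0.2% final DMSO, with inhibition expressed relative to vehicle-treated wells.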

[3] = system: Human melanoma cancer cells (SK-MEL-28); test: Cell growth inhibition assay (CellTiter-Glo), SK-MEL-28; format: cell-based; conditions: SK-MEL-28, Table 3b, later runs, average for the one or more runs, categorized, read-out: IC50 for SK-MEL-28
[4] = Table 1b, read-out: B-Raf pIC50 (converted)

| Structure (SMILES) | IC50 [1, 4] | IC50 [2] | IC50 [3] | IC50 ([1]; B-Raf pIC50, Table 1b) |
| --- | --- | --- | --- | --- |
| CC(C)(O)CCc1nccc(-c2sc(C(C)(C)C)nc2-c2cccc(NS(=O)(=O)c3cc(F)ccc3F)c2F)n1 [Example 250, N-(3-{2-(1,1-dimethylethyl)-5-[2-(3-hydroxy-3-methylbutyl)-4-pyrimidinyl]-1,3-thiazol-4-yl}-2-fluorophenyl)-2,5-difluorobenzenesulfonamide] | 3.16 to 31.6 nM | < 100 nM | 100 to 1000 nM | – |
| CC(C)(C)c1nc(-c2cccc(NS(=O)(=O)c3c(F)cccc3F)c2F)c(-c2ccnc(CCS(C)(=O)=O)n2)s1 [Example 251, N-[3-(2-(1,1-dimethylethyl)-5-{2-[2-(methylsulfonyl)ethyl]-4-pyrimidinyl}-1,3-thiazol-4-yl)-2-fluorophenyl]-2,6-difluorobenzenesulfonamide] | 3.16 to 31.6 nM | < 100 nM | < 100 nM | – |
| CC(C)(C)c1nc(-c2cccc(NS(=O)(=O)c3cc(F)ccc3F)c2Cl)c(-c2ccnc(CCS(C)(=O)=O)n2)s1 [Example 252, N-[2-chloro-3-(2-(1,1-dimethylethyl)-5-{2-[2-(methylsulfonyl)ethyl]-4-pyrimidinyl}-1,3-thiazol-4-yl)phenyl]-2,5-difluorobenzenesulfonamide] | – | < 100 nM | < 100 nM | ≤ 3.16 nM |
| Cc1nccc(-c2sc(N3CCS(=O)(=O)CC3)nc2-c2cccc(NS(=O)(=O)c3cc(F)ccc3F)c2F)n1 [Example 253, N-{3-[2-(1,1-dioxido-4-thiomorpholinyl)-5-(2-methyl-4-pyrimidinyl)-1,3-thiazol-4-yl]-2-fluorophenyl}-2,5-difluorobenzenesulfonamide] | 3.16 to 31.6 nM | < 100 nM | < 100 nM | – |
| CC(C)(C)c1nc(-c2cccc(NS(=O)(=O)c3cc(F)ccc3F)c2F)c(-c2ccnc(CCC(=O)N3CCOCC3)n2)s1 [Example 254, N-[3-(2-(1,1-dimethylethyl)-5-{2-[3-(4-morpholinyl)-3-oxopropyl]-4-pyrimidinyl}-1,3-thiazol-4-yl)-2-fluorophenyl]-2,5-difluorobenzenesulfonamide] | 3.16 to 31.6 nM | 100 to 1000 nM | < 100 nM | – |
| CC(C)(C)c1nc(-c2cccc(NS(=O)(=O)c3cc(F)ccc3F)c2F)c(-c2ccnc(CCC(=O)N3CCS(=O)(=O)CC3)n2)s1 [Example 255, N-[3-(2-(1,1-dimethylethyl)-5-{2-[3-(1,1-dioxido-4-thiomorpholinyl)-3-oxopropyl]-4-pyrimidinyl}-1,3-thiazol-4-yl)-2-fluorophenyl]-2,5-difluorobenzenesulfonamide] | 3.16 to 31.6 nM | < 100 nM | < 100 nM | – |
| CC(C)(C)c1nc(-c2cccc(NS(=O)(=O)c3ccoc3)c2F)c(-c2ccncn2)s1 [Example 256, N-{3-[2-(1,1-dimethylethyl)-5-(4-pyrimidinyl)-1,3-thiazol-4-yl]-2-fluorophenyl}-3-furansulfonamide] | – | < 100 nM | < 100 nM | ≤ 3.16 nM |
| CC(C)(C)c1nc(-c2c(F)ccc(NS(=O)(=O)c3cc(F)ccc3F)c2F)c(-c2ccnc(N)n2)s1 [Example 258, N-{3-[5-(2-amino-4-pyrimidinyl)-2-(1,1-dimethylethyl)-1,3-thiazol-4-yl]-2,4-difluorophenyl}-2,5-difluorobenzenesulfonamide] | – | < 100 nM | < 100 nM | ≤ 3.16 nM |
| CC(C)(C)c1nc(-c2cccc(NS(=O)(=O)c3ccco3)c2Cl)c(-c2ccnc(N)n2)s1 [Example 259, N-{3-[5-(2-amino-4-pyrimidinyl)-2-(1,1-dimethylethyl)-1,3-thiazol-4-yl]-2-chlorophenyl}-2-furansulfonamide] | – | < 100 nM | < 100 nM | ≤ 3.16 nM |
| Cc1nccc(-c2sc(C(C)(C)C)nc2-c2c(F)ccc(NS(=O)(=O)c3cc(F)ccc3F)c2F)n1 [Example 262, N-{3-[2-(1,1-dimethylethyl)-5-(2-methyl-4-pyrimidinyl)-1,3-thiazol-4-yl]-2,4-difluorophenyl}-2,5-difluorobenzenesulfonamide] | – | < 100 nM | < 100 nM | ≤ 3.16 nM |
| Cc1nccc(-c2sc(C(C)(C)C)nc2-c2cccc(NS(=O)(=O)c3ccco3)c2Cl)n1 [Example 263, N-{2-chloro-3-[2-(1,1-dimethylethyl)-5-(2-methyl-4-pyrimidinyl)-1,3-thiazol-4-yl]phenyl}-2-furansulfonamide] | – | 100 to 1000 nM | 100 to 1000 nM | ≤ 3.16 nM |
| CC(C)(C)c1nc(-c2cccc(NS(=O)(=O)c3ccoc3)c2Cl)c(-c2ccnc(N)n2)s1 [Example 264, N-{3-[5-(2-amino-4-pyrimidinyl)-2-(1,1-dimethylethyl)-1,3-thiazol-4-yl]-2-chlorophenyl}-3-furansulfonamide] | – | < 100 nM | < 100 nM | ≤ 3.16 nM |
| Nc1nccc(-c2sc(N3CCOCC3)nc2-c2cccc(NS(=O)(=O)c3ccoc3)c2Cl)n1 [Example 266, N-{3-[5-(2-amino-4-pyrimidinyl)-2-(4-morpholinyl)-1,3-thiazol-4-yl]-2-chlorophenyl}-3-furansulfonamide] | – | < 100 nM | < 100 nM | ≤ 3.16 nM |
| Nc1nccc(-c2sc(N3CCOCC3)nc2-c2cccc(NS(=O)(=O)c3ccoc3)c2F)n1 [Example 267, N-{3-[5-(2-amino-4-pyrimidinyl)-2-(4-morpholinyl)-1,3-thiazol-4-yl]-2-fluorophenyl}-3-furansulfonamide] | – | 100 to 1000 nM | 100 to 1000 nM | ≤ 3.16 nM |
| O=S(=O)(Nc1cccc(-c2nc(N3CCOCC3)sc2-c2ccncn2)c1Cl)c1ccoc1 [Example 269, N-{2-chloro-3-[2-(4-morpholinyl)-5-(4-pyrimidinyl)-1,3-thiazol-4-yl]phenyl}-3-furansulfonamide] | – | < 100 nM | 100 to 1000 nM | ≤ 3.16 nM |
| Cc1nccc(-c2sc(C(C)(C)C)nc2-c2cccc(NS(=O)(=O)c3ccoc3)c2Cl)n1 [Example 270, N-{2-chloro-3-[2-(1,1-dimethylethyl)-5-(2-methyl-4-pyrimidinyl)-1,3-thiazol-4-yl]phenyl}-3-furansulfonamide] | – | 100 to 1000 nM | 100 to 1000 nM | ≤ 3.16 nM |
| Cc1nccc(-c2sc(N3CCOCC3)nc2-c2cccc(NS(=O)(=O)c3ccoc3)c2Cl)n1 [Example 271, N-{2-chloro-3-[5-(2-methyl-4-pyrimidinyl)-2-(4-morpholinyl)-1,3-thiazol-4-yl]phenyl}-3-furansulfonamide] | 3.16 to 31.6 nM | 100 to 1000 nM | < 100 nM | – |
| Cc1nccc(-c2sc(N3CCOCC3)nc2-c2cccc(NS(=O)(=O)c3ccoc3)c2F)n1 [Example 272, N-{2-fluoro-3-[5-(2-methyl-4-pyrimidinyl)-2-(4-morpholinyl)-1,3-thiazol-4-yl]phenyl}-3-furansulfonamide] | 3.16 to 31.6 nM | 100 to 1000 nM | < 100 nM | – |
| CC(C)(C)c1nc(-c2cccc(NS(=O)(=O)c3ccccn3)c2F)c(-c2ccnc(N)n2)s1 [Example 278, N-{3-[5-(2-amino-4-pyrimidinyl)-2-(1,1-dimethylethyl)-1,3-thiazol-4-yl]-2-fluorophenyl}-2-pyridinesulfonamide] | 3.16 to 31.6 nM | 100 to 1000 nM | 100 to 1000 nM | – |
| Nc1nccc(-c2sc(C3CCOCC3)nc2-c2cccc(NS(=O)(=O)c3cnccn3)c2F)n1 [Example 280, N-{3-[5-(2-amino-4-pyrimidinyl)-2-(tetrahydro-2H-pyran-4-yl)-1,3-thiazol-4-yl]-2-fluorophenyl}-2-pyrazinesulfonamide] | – | 100 to 1000 nM | 100 to 1000 nM | ≤ 3.16 nM |
| Nc1nccc(-c2sc(C3CCOCC3)nc2-c2cccc(NS(=O)(=O)c3ccoc3)c2F)n1 [Example 281, N-{3-[5-(2-amino-4-pyrimidinyl)-2-(tetrahydro-2H-pyran-4-yl)-1,3-thiazol-4-yl]-2-fluorophenyl}-3-furansulfonamide] | – | < 100 nM | < 100 nM | ≤ 3.16 nM |
| Cn1nccc1S(=O)(=O)Nc1cccc(-c2nc(C(C)(C)C)sc2-c2ccnc(N)n2)c1F [Example 282, N-{3-[5-(2-amino-4-pyrimidinyl)-2-(1,1-dimethylethyl)-1,3-thiazol-4-yl]-2-fluorophenyl}-1-methyl-1H-pyrazole-5-sulfonamide hydrochloride] | – | 100 to 1000 nM | 1000 to 10000 nM | 31.6 to 1000 nM |
| Cn1cc(S(=O)(=O)Nc2cccc(-c3nc(C(C)(C)C)sc3-c3ccnc(N)n3)c2F)cn1 [Example 283, N-{3-[5-(2-amino-4-pyrimidinyl)-2-(1,1-dimethylethyl)-1,3-thiazol-4-yl]-2-fluorophenyl}-1-methyl-1H-pyrazole-4-sulfonamide hydrochloride] | 3.16 to 31.6 nM | 100 to 1000 nM | 100 to 1000 nM | – |
| Cn1ccc(S(=O)(=O)Nc2cccc(-c3nc(C(C)(C)C)sc3-c3ccnc(N)n3)c2F)c1 [Example 284, N-{3-[5-(2-amino-4-pyrimidinyl)-2-(1,1-dimethylethyl)-1,3-thiazol-4-yl]-2-fluorophenyl}-1-methyl-1H-pyrrole-3-sulfonamide hydrochloride] | – | 100 to 1000 nM | 100 to 1000 nM | 31.6 to 1000 nM |
| Cn1ccc(S(=O)(=O)Nc2cccc(-c3nc(C4CCOCC4)sc3-c3ccnc(N)n3)c2F)c1 [Example 285, N-{3-[5-(2-amino-4-pyrimidinyl)-2-(tetrahydro-2H-pyran-4-yl)-1,3-thiazol-4-yl]-2-fluorophenyl}-1-methyl-1H-pyrrole-3-sulfonamide hydrochloride] | – | 100 to 1000 nM | 1000 to 10000 nM | 31.6 to 1000 nM |

— US7994185B2, “Benzene sulfonamide thiazole and oxazole compounds” (Glaxo Smith Kline LLC, priority 2008, dated 2011)
